Assay results published in patent US5407660A, “Diagnostic liposomal compositions for enhancing NMR imaging” (Mallinckrodt Medical, Inc., priority 1993, dated 1995).
Where two headings read alike, the source gives them in different places.

Experiments:
[1] = Acute intravenous toxicity of GdNa2 DTPA in mice (Example 7); assay type: in vivo, Swiss CF-1 albino mice
Description: The acute intravenous toxicity of disodium (diethylenetriaminepentaacetato)gadolinium (III) (composition C of Example 1) was studied.
A total of 16 Swiss CF-1 albino mice (8 male, 22.0-25.6 g; 8 female, 18.2-24.1 g) were used. Picric acid markings were used for individual identification.
The protocol of Example 4 was used. Groups of 2-4 mice, with sexes equally represented, received single intravenous doses of the test substance according to the following schedule: […]

[2] = for Blood T1: before contrast 510
[3] = Abdominal NMR imaging in rabbits (Example 11); assay type: in vivo
Procedure: Two rabbits were anesthetized and abdominal NMR images were obtained in the General Electric NMR scanner. Rabbits then received intravenous doses of 0.3 ml/kg (0.5 mmol Gd(III)/kg) of the preparation of composition D of Example 1 (GdNa2 DTPA) and additional abdominal NMR images were made over a period of two hours after dosing.

[4] = 0.34 mmol Gd(III)/kg, 10 minutes

SMILES: O=C([O-])CN(CCN(CC(=O)[O-])CC(=O)[O-])CCN(CC(=O)[O-])CC(=O)[O-].[Gd+3].[Na+].[Na+] [GdNa2 DTPA, disodium (diethylenetriaminepentaacetato)gadolinium (III)]
- Mean T1, Blood (0.51 mmol/kg, 5 minutes): 292 ms
- Mean T1, Blood (0.51 mmol/kg, 10 minutes): 321 ms
- Mean T1, Blood (0.51 mmol/kg, 15 minutes): 337 ms
- Mean tissue T1, Fat (0.51 mmol/kg, 15 minutes): 61 ms
- Mean tissue T1, Heart (0.51 mmol/kg, 15 minutes): 267 ms
- Mean tissue T1, Large Intestine (0.51 mmol/kg, 15 minutes): 228 ms
- Mean tissue T1, Liver (0.51 mmol/kg, 15 minutes): 172 ms
- Mean tissue T1, Lung (0.51 mmol/kg, 15 minutes): 303 ms
- Mean tissue T1, Pancreas (0.51 mmol/kg, 15 minutes): 172 ms
- Mean tissue T1, Renal Cortex (0.51 mmol/kg, 15 minutes): 137 ms
- Mean tissue T1, Renal Medulla (0.51 mmol/kg, 15 minutes): 130 ms
- Mean tissue T1, Skel. Muscle (0.51 mmol/kg, 15 minutes): 217 ms
- Mean tissue T1, Small Intestine (0.51 mmol/kg, 15 minutes): 224 ms
- Mean tissue T1, Spleen (0.51 mmol/kg, 15 minutes): 257 ms
- Mean tissue T1, Stomach (0.51 mmol/kg, 15 minutes): 219 ms
- changes in T1 relative to changes in T2 (0.1, 0.3 and 1.0 ml/kg i.v.): generally greater than changes in T2 values
- tissue and blood T1 and T2 values (in words) (0.1, 0.3 and 1.0 ml/kg i.v.): Dose-related changes in tissue and blood T1 and T2 values
- tissues with the most profound effects on T1 (0.1, 0.3 and 1.0 ml/kg i.v.): blood and kidneys (both cortex and medulla) with large intestine, pancreas and stomach the next most sensitive
- Cardiovascular effects (rabbit, in vivo, iv): minimal
- dose up to which no deaths were observed ([1]; intravenous, mice): 12000 mg/kg
- acute intravenous toxicity profile (in words) ([1]; mouse): relatively safe mouse acute intravenous toxicity profile
- body weight (in words) ([1]; mouse, in vivo): slight reduction in body weight
- respiratory distress ([1]; mouse, in vivo): respiratory distress was observed
- time until all mice appeared normal ([1]; mouse, in vivo): ≤ 6 h
- T1, infarcted regions of heart muscle ([2]; 0.17 mmol Gd(III)/kg, 10 minutes): 290 ms
- T1, normally perfused myocardial tissue ([2]; 0.17 mmol Gd(III)/kg, 10 minutes, untreated 330): 180 ms
- average T1, infarcted tissue ([2]; 0.34 mmol Gd(III)/kg): 230 ms
- Blood T1 ([2]; 0.34 mmol Gd(III)/kg, 5 minutes): 50 ms
- images of excised hearts, normal versus infarcted tissue [2, 4]: marked differences between normal and infarcted tissues
- Blood T1 [2, 4]: 100 ms
- average T1, normally perfused myocardium ([2]; 0.34 mmol Gd(III)/kg, untreated 330): 135 ms
- renal medulla and renal cortex proton images ([3]; 0.3 ml/kg (0.5 mmol Gd(III)/kg) i.v.): Marked alteration
- time of peak effects on renal images ([3]; 0.3 ml/kg i.v.): ≤ 15 min
